By chromatographic logP is commonly meant lipophilicity estimated from chromatographic retention. Read a low chromatographic logP as a more hydrophilic compound. By melting point is commonly meant the temperature, or range, at which the solid turns liquid.

Experimental findings from patent US6762152B1, “Substituted benzoyl ketones, methods for producing them and their use as herbicides” (Bayer Aktiengesellschaft, priority 1999, dated 2004) are described below.

Data set [1] deals with weeds. The data set can be described thus: Pre-emergence test, weeds. The note with it: soil sprayed, rated after three weeks. The data set is classed as in vivo. The procedure:
Pre-emergence Test Solvent: 5 parts by weight of acetone Emulsifier: 1 part by weight of alkylaryl polyglycol ether To produce a suitable preparation of active compound, 1 part by weight of active compound is mixed with the stated amount of solvent, the stated amount of emulsifier is added and the concentrate is diluted with water to the desired concentration. Seeds of the test plants are sown in normal soil. After about 24 hours, the soil is sprayed with the preparation of active compound such that the particuiar amount of active compound desired is applied per unit area. The concentration of the spray liquor is chosen so that the particular amount of active compound desired is applied in 1000 litres of water per hectare. After three weeks, the degree of damage to the plants is rated in % damage in comparison to the development of the untreated control. The figures denote: 0%=no effect (like untreated control) 100%=total destruction

For data set [2], the system named is crop plants, such as, for example, maize. Nature of the data set: Pre-emergence test, crop plant tolerance. The format is in vivo. The note with it: rated after three weeks. From the text:
(§1) Solvent: 5 parts by weight of acetone
(§2) Emulsifier: 1 part by weight of alkylaryl polyglycol ether
Seeds of the test plants are sown in normal soil.
(§3) After three weeks, the degree of damage to the plants is rated in % damage in comparison to the development of the untreated control.

Data set [3] can be described thus: logP by HPLC, reverse-phase column (C 18), acidic range. The format is physicochemical. The procedure: Temperature: 43° C. (a) Mobile phases for the determination in the acidic range: 0.1% aqueous phosphoric acid, acetonitrile; linear gradient from 10% acetonitrile to 90% acetonitrile—the corresponding data in Table 1 are labelled^a). […] Temperature: 43° C. (a) Mobile phases for the determination in the acidic range: 0.1% aqueous phosphoric acid, acetonitrile; linear gradient from 10% acetonitrile to 90% acetonitrile—the corresponding data in Table 2 are labelled^a).

The subject of data set [4] is weeds. Nature of the data set: Post-emergence test, weeds. The data set is classed as in vivo. The note with it: plants of 5 to 15 cm sprayed, rated after three weeks. The procedure: as §1, §2
To produce a suitable preparation of active compound, 1 part by weight of active compound is mixed with the stated amount of solvent, the stated amount of emulsifier is added and the concentrate is diluted with water to the desired concentration.
Test plants of a height of 5 to 15 cm are sprayed with the preparation of active compound such that the particular amounts of active compound desired are applied per unit area. The concentration of the spray liquor is chosen so that the particular amounts of active compound are applied in 1000 l of water/ha.
as §3
0%=no effect (like untreated control)

Where [5] appears, read: a) acidic range: 0.1% aqueous phosphoric acid, acetonitrile, 43° C., Table 1.

Where two headings read alike, the source gives them in different places.

Take `CCOc1nn(Cc2cc(C(F)(F)F)ccc2C(=O)C(C#N)C(=O)C2CC2)c(=O)n1C1CC1` (stereo not drawn) [Example 1, 3-cyclopropyl-2-{2-[4-(cyclopropyl-3-ethoxy-5-oxo-4,5-dihydro-1H-1,2,4-triazol-1-yl)-methyl]4-trifluoromethyl-benzoyl}-3-oxo-propanenitrile]: the activity against weeds entry in the data set on weeds [1] and in the data set on weeds [4] was “strong activity” throughout. In addition, in data set [2], the “tolerated by crop plants” value is on record as “tolerated well”. The chromatographic logP in data set [3] (reverse-phase HPLC column (C 18), determined at pH=2) was 3.35.

Turning to `CSc1nn(Cc2cc(C(F)(F)F)ccc2C(=O)C(C#N)C(=O)C2CC2)c(=O)n1C1CC1` (stereo not drawn) [Example 2], the activity against weeds entry in the data set with weeds [1] and in the data set with weeds [4] was “strong activity” throughout. Besides, the “tolerated by crop plants” value in data set [2] was “tolerated well”. Besides, in data set [3] (setting [5]), the logP entry is “(IA) logP = 2.92^a)”.

On to `CCOc1nn(Cc2cc(C(F)(F)F)ccc2C(=O)C(C#N)C(=O)C2CC2)c(=O)n1C` (stereo not drawn) [Example 3], for which the activity against weeds entry with weeds [1] and with weeds [4] was “strong activity” in each case. Further, the “tolerated by crop plants” value in data set [2] is recorded as “tolerated well”. Besides, in data set [3] (setting [5]), the logP result was “(IA) logP = 3.03^a)”.

On to `CSc1nn(Cc2cc(Br)ccc2C(=O)C(C#N)C(=O)C2CC2)c(=O)n1C` (stereo not drawn) [Example 5], for which the activity against weeds entry with weeds [1] and in the data set with weeds [4] was “strong activity” in each case. Also, in data set [2], the “tolerated by crop plants” value is listed as “tolerated well”. Also, the logP result in data set [3] (setting [5]) is given as “(IA) logP = 2.83^a)”.

For the compound `CCOc1nn(Cc2cc(Br)ccc2C(=O)C(C#N)C(=O)C2CC2)c(=O)n1C` (stereo not drawn) [Example 6], the activity against weeds entry with weeds [1] and with weeds [4] was “strong activity” throughout. The “tolerated by crop plants” value in data set [2] is on record as “tolerated well”. Also, in data set [3] (setting [5]), the logP result is recorded as “(IA) logP = 2.94^a)”.

As for `CN(C)c1nn(Cc2cc(F)ccc2C(=O)C(C#N)C(=O)C2CC2)c(=O)n1C` (stereo not drawn) [Example 7], the logP entry in data set [3] is “(IA) logP = 2.28^a)”.

As for `COc1nn(Cc2cc(F)ccc2C(=O)C(C#N)C(=O)C2CC2)c(=O)n1C1CC1` (stereo not drawn) [Example 8], the logP entry in data set [3] was “(IA) logP = 2.56^a)”.

Regarding `CSc1nn(Cc2cc(S(C)(=O)=O)ccc2C(=O)C(C#N)C(=O)C2CC2)c(=O)n1C` (stereo not drawn) [Example 9], the logP result in data set [3] is “(IA) logP = 1.74^a)”.

Regarding `Cc1nn(Cc2cc(C(F)(F)F)ccc2C(=O)C(C#N)C(=O)C2CC2)c(=O)n1C` (stereo not drawn) [Example 10], the logP entry in data set [3] is given as “(IA) logP = 2.35^a)”.

Compound `CCOc1nn(Cc2cc(C(F)(F)F)ccc2C(=O)O)c(=O)n1C` [III-2, 5-ethoxy-4-methyl-2-(2-carboxy-5-trifluoromethyl-benzyl)-2,4-dihydro-3H-1,2,4-triazol-3-one] returned a chromatographic logP in data set [3] (reverse-phase HPLC column (C 18); a) acidic range, starting material of formula (III)) of 2.18.

Take `Cn1c(C(F)(F)F)nn(Cc2c(Cl)ccc(C(=O)O)c2Cl)c1=O` [III-3, 4-methyl-5-trifluoromethyl-2-(2,6-dichloro-3-carboxy-benzyl)-2,4-dihydro-3H-1,2,4-triazol-3-one]: the melting point was found to be 207 °C.

As for `CCOn1c(CC)nn(Cc2cc(C(F)(F)F)ccc2C(=O)c2c(C(=O)OC)noc2C2CC2)c1=O` [IV-1, (5-cyclopropyl-3-methoxycarbonyl-isoxazol-4-yl)-[2-(4-ethoxy-3-ethyl-5-oxo-4,5-dihydro-[1,2,4]-triazol-1-yl-methyl)-4-trifluoromethyl-phenyl]-methanone], the chromatographic logP in data set [3] (reverse-phase HPLC column (C 18), determined at pH=2.3, starting material of formula (IV)) was determined as 3.56.
